The target of assay [1] is T1, human BLVRB (Homo sapiens, UniProt P30043).
T1 construct: pET21
T1 sequence (P30043 2-206): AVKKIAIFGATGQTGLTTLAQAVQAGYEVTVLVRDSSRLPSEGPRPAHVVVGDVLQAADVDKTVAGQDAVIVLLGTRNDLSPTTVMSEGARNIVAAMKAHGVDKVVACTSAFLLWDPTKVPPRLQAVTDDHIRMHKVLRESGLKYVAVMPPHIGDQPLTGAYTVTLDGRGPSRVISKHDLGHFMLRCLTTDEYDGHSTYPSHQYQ
The assay is described as follows: isothermal titration calorimetry. The format is binding. An excerpt:
(§1) isothermal titration calorimetry on human BLVRB
For orientation: Isothermal titration calorimetry measures the heat released or taken up as one component is titrated into another.

For assay [2], the target named is T2, human BLVRB (Homo sapiens, UniProt P30043, T164S).
T2 construct: pET21
T2 sequence (P30043 2-206 T164S): T1 sequence (P30043 2-206) with T163S
The assay is described as follows: isothermal titration calorimetry. The format is binding.
Excerpt: as §1

In a further assay the target is T3, Aedes aegypti BLVRB (Aedes aegypti, UniProt Q16FC8).
T3 construct: gene 5565330
T3 sequence (Q16FC8 1-205): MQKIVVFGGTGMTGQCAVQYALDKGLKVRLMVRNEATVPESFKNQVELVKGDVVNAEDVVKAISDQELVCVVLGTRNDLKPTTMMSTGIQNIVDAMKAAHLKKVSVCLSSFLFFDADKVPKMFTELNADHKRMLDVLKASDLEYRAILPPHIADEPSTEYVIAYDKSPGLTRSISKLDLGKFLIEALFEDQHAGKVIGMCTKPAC
In words: NMR spectra ([…]-HSQC) apo versus NADP+. In kind it is binding. The note with it: complex unstable over hours at room temperature.

Assay [3] has as its target T1, human BLVRB. In words: NMR titration ([…]-HSQC). The note with it: bis-tris pH 6.5; weak binding.
For a further assay, the target named is T4, hyrax BLVRB.
T4 construct: pET21
In words: NMR titration ([…]-HSQC). Details: species or system Procavia capensis. The settings on record: holo form, bis-tris pH 6.5, 20 °C, 900 MHz.

Assay [4] addresses T1, human BLVRB. The assay is described as follows: NMR titration ([…]-HSQC). In kind it is binding.

Changes are numbered by the printed parent chain. Read-outs that look alike come from different tables or passages of the source.

With `NC(=O)c1ccc[n+]([C@@H]2O[C@H](COP(=O)(O)OP(=O)(O)OC[C@H]3O[C@@H](n4cnc5c(N)ncnc54)[C@H](OP(=O)(O)O)[C@@H]3O)[C@@H](O)[C@H]2O)c1` [NADP^+], the Kd at human BLVRB [1] (read-out: Kd (nM) with NADP^+) stood at 190 ± 5 nM; at human BLVRB [2] (read-out: Kd (nM) with NADP^+), 130 ± 10 nM. Besides, the “NMR spectra (15N-HSQC) apo versus NADP+” value on Aedes aegypti BLVRB is “gave rise to good dispersion upon NADP^+ binding”.

Turning to `C=CC1=C(C)/C(=C/c2[nH]c(Cc3[nH]c(/C=C4\NC(=O)C(C)=C4C=C)c(C)c3CCC(=O)O)c(CCC(=O)O)c2C)NC1=O` [BR-α], the binding affinity entry at human BLVRB [3] is reported as “a titration of human BLVRB with BR-α revealed an expected weak binding affinity”.

As for `Cc1cc2nc3c(=O)[nH]c(=O)nc-3n(C[C@H](O)[C@H](O)[C@H](O)COP(=O)(O)OP(=O)(O)OC[C@H]3O[C@@H](n4cnc5c(N)ncnc54)[C@H](O)[C@@H]3O)c2cc1C` [FAD], the results for the Kd at hyrax BLVRB (read-out: Kd) and at human BLVRB [4] (read-out: Kd) were 496 ± 22.6 µM and 283 ± 13.5 µM, respectively.

`NC(=O)C1=CN([C@@H]2O[C@H](COP(=O)(O)OP(=O)(O)OC[C@H]3O[C@@H](n4cnc5c(N)ncnc54)[C@H](OP(=O)(O)O)[C@@H]3O)[C@@H](O)[C@H]2O)C=CC1` [NADPH]: the results for the Kd on human BLVRB [1] (read-out: Kd (nM) with NADPH) and on human BLVRB [2] (read-out: Kd (nM) with NADPH) were 130 ± 10 nM and 110 ± 10 nM, respectively.

`C=CC1=C(C)/C(=C/c2[nH]c(Cc3[nH]c(/C=C4\NC(=O)C(C)=C4CCC(=O)O)c(CCC(=O)O)c3C)c(C)c2C=C)NC1=O` (mixture of isomers) [bilirubin-β]: the Kd at hyrax BLVRB (NADP+ 1 mM, read-out: binding affinity) came to 19.5 ± 7.4 µM; at human BLVRB [4] (read-out: binding affinity), 26.8 ± 9.1 µM.

(Values after publication PMC11675717, “Evolutionary Adaptations in Biliverdin Reductase B: Insights into Coenzyme Dynamics and Catalytic Efficiency” (International Journal of Molecular Sciences, 2024).)
